Experimental data from patent US8716284B2, “Adamantyl diamide derivatives and uses of same” (H. Lundbeck A/S, priority 2008, dated 2014).

Biological target: T1, rat metabotropic glutamate receptor 5 (mGluR5) (Rattus norvegicus, UniProt P31424)
T1 construct: expressed in transfected cells; host or cells: HEK 293
Assay: Calcium mobilization assay (FLIPR) for negative or positive allosteric activity, HEK 293 cells
Assay type: cell-based
Conditions: HEK293, negative allosteric modulation, inhibition of EC80 glutamate response; read-out: FLIPR maximum inhibition
Method in brief: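 HEK 293 cells stably expressing rat mGluR5, Fluo-4 loaded in HEPES-buffered HBSS pH 7.4 with 0.1% BSA and probenecid. Compound added with EC20 (potentiation) or EC80 (inhibition) glutamate; fluorescence read over 3 min at room temperature. Basal-subtracted maximum fluorescence change fitted to Hill equation.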

T1 sequence (P31424 21-1171 isoform P31424-2 limits assumed): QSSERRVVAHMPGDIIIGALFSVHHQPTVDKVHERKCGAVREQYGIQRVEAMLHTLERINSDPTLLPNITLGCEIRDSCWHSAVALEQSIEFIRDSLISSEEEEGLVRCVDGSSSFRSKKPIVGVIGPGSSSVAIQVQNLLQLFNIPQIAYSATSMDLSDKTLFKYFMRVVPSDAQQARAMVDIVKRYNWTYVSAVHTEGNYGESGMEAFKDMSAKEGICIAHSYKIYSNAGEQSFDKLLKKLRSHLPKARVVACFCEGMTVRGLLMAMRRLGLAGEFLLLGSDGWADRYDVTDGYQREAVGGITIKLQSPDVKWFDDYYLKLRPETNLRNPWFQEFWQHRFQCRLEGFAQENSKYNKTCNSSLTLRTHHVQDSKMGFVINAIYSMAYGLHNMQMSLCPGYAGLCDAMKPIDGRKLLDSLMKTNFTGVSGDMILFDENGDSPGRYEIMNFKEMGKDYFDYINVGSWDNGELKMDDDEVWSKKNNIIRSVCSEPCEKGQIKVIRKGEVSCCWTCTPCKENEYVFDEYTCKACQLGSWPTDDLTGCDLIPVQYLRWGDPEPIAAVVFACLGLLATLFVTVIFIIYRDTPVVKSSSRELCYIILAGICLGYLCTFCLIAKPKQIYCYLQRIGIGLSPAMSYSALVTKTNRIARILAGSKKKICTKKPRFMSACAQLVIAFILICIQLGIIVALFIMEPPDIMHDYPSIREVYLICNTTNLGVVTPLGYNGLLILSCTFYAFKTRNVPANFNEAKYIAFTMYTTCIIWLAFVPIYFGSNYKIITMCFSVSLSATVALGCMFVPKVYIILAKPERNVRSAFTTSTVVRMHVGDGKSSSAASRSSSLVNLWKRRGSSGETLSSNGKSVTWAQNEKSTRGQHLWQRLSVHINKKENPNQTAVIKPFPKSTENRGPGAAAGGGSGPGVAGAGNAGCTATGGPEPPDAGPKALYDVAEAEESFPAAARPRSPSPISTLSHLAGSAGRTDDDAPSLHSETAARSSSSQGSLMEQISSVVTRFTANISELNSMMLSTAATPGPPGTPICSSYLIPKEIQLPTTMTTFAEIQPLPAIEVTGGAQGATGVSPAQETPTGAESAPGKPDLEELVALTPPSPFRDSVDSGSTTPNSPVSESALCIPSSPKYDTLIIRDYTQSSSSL

Row | SMILES | Emax
1 | Cc1cccc(C(=O)NC23CC4CC(C2)CC(NC(=O)C2CCC2)(C4)C3)n1 [Example 46, 6-Methyl-pyridine-2-carboxylic acid [3-(cyclobutanecarbonyl-amino)-adamantan-1-yl]-amide] | 63 to 99%
2 | Cc1cccc(C(=O)NC23CC4CC(CC(NC(=O)c5cc(C6CC6)on5)(C4)C2)C3)n1 [Example 26, 6-Methyl-pyridine-2-carboxylic acid {3-[(5-cyclopropyl-isoxazole-3-carbonyl)-amino]-adamantan-1-yl}-amide] | 63 to 99%
3 | Cc1ccc2nc(C(=O)NC34CC5CC(CC(NC(=O)c6cccc(C)n6)(C5)C3)C4)cn2c1 [Example 54, 6-Methyl-imidazo[1,2-a]pyridine-2-carboxylic acid {3-[(6-methyl-pyridine-2-carbonyl)-amino]-adamantan-1-yl}-amide] | 63 to 99%
4 | Cc1ccc2nc(C(=O)NC34CC5CC(CC(NC(=O)c6ccccn6)(C5)C3)C4)cn2c1 [Example 90, 6-Methyl-imidazo[1,2-a]pyridine-2-carboxylic acid {3-[(pyridine-2-carbonyl)-amino]-adamantan-1-yl}-amide] | 63 to 99%
5 | Cc1cccc(C(=O)NC23CC4CC(CC(NC(=O)c5cccc(CCl)c5)(C4)C2)C3)n1 [Example 45, 6-Methyl-pyridine-2-carboxylic acid [3-(3-chloromethyl-benzoylamino)-adamantan-1-yl]-amide] | 63 to 99%
6 | O=C(NC12CC3CC(C1)CC(NC(=O)c1ccno1)(C3)C2)c1ccccn1 [Example 77, Pyridine-2-carboxylic acid {3-[(isoxazole-5-carbonyl)-amino]-adamantan-1-yl}-amide] | 63 to 99%
7 | O=C(NC12CC3CC(C1)CC(NC(=O)c1cn4ccccc4n1)(C3)C2)c1cccc(F)c1 [Example 100, Imidazo[1,2-a]pyridine-2-carboxylic acid [3-(3-fluoro-benzoylamino)-adamantan-1-yl]-amide] | 63 to 99%
8 | COC(=O)c1cccc(C(=O)NC23CC4CC(CC(NC(=O)c5cccc(C)n5)(C4)C2)C3)n1 [Example 139, 6-{3-[(6-Methyl-pyridine-2-carbonyl)-amino]-adamantan-1-ylcarbamoyl}-pyridine-2-carboxylic acid methyl ester] | 70 to 99%
9 | Cc1ccc2nc(C(=O)NC34CC5CC(CC(NC(=O)c6cccc(F)c6)(C5)C3)C4)cn2c1 [Example 102, 6-Methyl-imidazo[1,2-a]pyridine-2-carboxylic acid [3-(3-fluoro-benzoylamino)-adamantan-1-yl]-amide] | 63 to 99%
10 | Cc1cncc(C(=O)NC23CC4CC(C2)CC(NC(=O)c2cccc(C(F)(F)F)c2F)(C4)C3)n1 [Example 150, 6-Methyl-pyrazine-2-carboxylic acid [3-(2-fluoro-3-trifluoromethyl-benzoylamino)-adamantan-1-yl]-amide] | 70 to 99%
11 | O=C(NC12CC3CC(C1)CC(NC(=O)c1nccc(C(F)(F)F)n1)(C3)C2)c1ccccn1 [Example 113, 4-Trifluoromethyl-pyrimidine-2-carboxylic acid {3-[(pyridine-2-carbonyl)-amino]-adamantan-1-yl}-amide] | 70 to 99%
12 | O=C(NC12CC3CC(C1)CC(NC(=O)C1CCC1)(C3)C2)c1ccccn1 [Example 82, Pyridine-2-carboxylic acid [3-(cyclobutanecarbonyl-amino)-adamantan-1-yl]-amide] | 63 to 99%
13 | Cn1ccc(C(=O)NC23CC4CC(CC(NC(=O)c5cccc(F)c5)(C4)C2)C3)n1 [Example 97, 1-Methyl-1H-pyrazole-3-carboxylic acid [3-(3-fluoro-benzoylamino)-adamantan-1-yl]-amide] | 63 to 99%
14 | Cn1ccc(C(=O)NC23CC4CC(C2)CC(NC(=O)c2ccn(C)n2)(C4)C3)n1 [Example 17, N,N′-(1,3-Adamantylene)bis(1-methyl-1H-pyrazole-3-carboxamide)] | 63 to 99%
15 | Cc1cccc(C(=O)NC23CC4CC(C2)CC(NC(=O)c2cc(C)n(C)n2)(C4)C3)n1 [Example 127, 6-Methyl-pyridine-2-carboxylic acid {3-[(1,5-dimethyl-1H-pyrazole-3-carbonyl)-amino]-adamantan-1-yl}-amide] | 70 to 99%
16 | O=C(NC12CC3CC(C1)CC(NC(=O)c1cccc(N4CCCC4)n1)(C3)C2)c1ccccn1 [Example 61, 6-Pyrrolidin-1-yl-pyridine-2-carboxylic acid {3-[(pyridine-2-carbonyl)-amino]-adamantan-1-yl}-amide] | 63 to 99%
17 | Cc1cccc(C(=O)NC23CC4CC(C2)CC(NC(=O)c2nccs2)(C4)C3)n1 [Example 40, 6-Methyl-pyridine-2-carboxylic acid {3-[(thiazole-2-carbonyl)-amino]-adamantan-1-yl}-amide] | 63 to 99%

Continued, values first:

Row | Emax | SMILES
18 | 63 to 99% | Cc1ccnc(C(=O)NC23CC4CC(CC(NC(=O)c5ccncn5)(C4)C2)C3)n1 [Example 194, 4-Methyl-pyrimidine-2-carboxylic acid {3-[(pyrimidine-4-carbonyl)-amino]-adamantan-1-yl}-amide]
19 | 63 to 99% | Cc1cncc(C(=O)NC23CC4CC(C2)CC(NC(=O)c2ccc5cnccc5n2)(C4)C3)n1 [Example 174, [1,6]Naphthyridine-2-carboxylic acid {3-[(6-methyl-pyrazine-2-carbonyl)-amino]-adamantan-1-yl}-amide]
20 | 70 to 99% | Cc1cncc(C(=O)NC23CC4CC(CC(NC(=O)c5ccnc(F)c5)(C4)C2)C3)n1 [Example 160, 6-Methyl-pyrazine-2-carboxylic acid {3-[(2-fluoro-pyridine-4-carbonyl)-amino]-adamantan-1-yl}-amide]
21 | 63 to 99% | Cc1cccc(C(=O)NC23CC4CC(C2)CC(NC(=O)c2cccc(N5CCC(O)CC5)n2)(C4)C3)n1 [Example 206, 4-Hydroxy-3,4,5,6-tetrahydro-2H-[1,2′]bipyridinyl-6′-carboxylic acid{3-[(6-methyl-pyridine-2-carbonyl)-amino]-adamantan-1-yl}-amide]
22 | 70 to 99% | Cc1cncc(C(=O)NC23CC4CC(CC(NC(=O)c5cccc(OC(F)F)c5)(C4)C2)C3)n1 [Example 162, 6-Methyl-pyrazine-2-carboxylic acid [3-(3-difluoro-methoxy-benzoylamino)-adamantan-1-yl]-amide]
23 | 70 to 99% | COc1cc(C(=O)NC23CC4CC(C2)CC(NC(=O)c2cncc(C)n2)(C4)C3)ccc1F [Example 159, 6-Methyl-pyrazine-2-carboxylic acid [3-(4-fluoro-3-methoxy-benzoylamino)-adamantan-1-yl]-amide]
24 | 63 to 99% | O=C(NC12CC3CC(C1)CC(NC(=O)c1cccc(N4CCC(O)CC4)n1)(C3)C2)c1ccccn1 [Example 200, 4-Hydroxy-3,4,5,6-ttrahydro-2H-[1,2′]bipyridinyl-6′-carboxylic acid {3-[(pyridine-2-carbonyl)-amino]-adamantan-1-yl}-amide]
25 | 63 to 99% | CN(C)CCCN(C)c1cccc(C(=O)NC23CC4CC(CC(NC(=O)c5cccc(F)c5)(C4)C2)C3)n1 [Example 243, 6-[(3-Dimethylamino-propyl)-methyl-amino]-pyridine-2-carboxylic acid [3-(3-fluoro-benzoylamino)-adamantan-1-yl]-amide]
26 | 63 to 99% | Cc1ccnc(C(=O)NC23CC4CC(CC(NC(=O)c5cnccn5)(C4)C2)C3)n1 [Example 189, 4-Methyl-pyrimidine-2-carboxylic acid {3-[(pyrazine-2-carbonyl)-amino]-adamantan-1-yl}-amide]
27 | 70 to 99% | Cc1cc(C(=O)NC23CC4CC(C2)CC(NC(=O)c2cncc(C)n2)(C4)C3)ccn1 [Example 156, 6-Methyl-pyrazine-2-carboxylic acid {3-[(2-methyl-pyridine-4-carbonyl)-amino]-adamantan-1-yl}-amide]
28 | 63 to 99% | CN(C)CCN(C)c1cccc(C(=O)NC23CC4CC(CC(NC(=O)c5cccc(F)c5)(C4)C2)C3)n1 [Example 248, 6-[(2-Dimethylamino-ethyl)-methyl-amino]-pyridine-2-carboxylic acid [3-(3-fluoro-benzoylamino)-adamantan-1-yl]-amide]
29 | 63 to 99% | O=C(NC12CC3CC(C1)CC(NC(=O)c1cccc(N4CCC(O)C4)n1)(C3)C2)c1cccc(F)c1 (stereo not shown) [Example 219, 6-(3-Hydroxy-pyrrolidin-1-yl)-pyridine-2-carboxylic acid [3-(3-fluoro-benzoylamino)-adamantan-1-yl]-amide]
30 | 63 to 99% | O=C(NC12CC3CC(C1)CC(NC(=O)c1cccc(N4CCOCC4)n1)(C3)C2)c1ccccn1 [Example 197, 6-Morpholin-4-yl-pyridine-2-carboxylic acid {3-[(pyridine-2-carbonyl)-amino]-adamantan-1-yl}-amide]
31 | 63 to 99% | Cc1cncc(C(=O)NC23CC4CC(C2)CC(NC(=O)c2ncccn2)(C4)C3)n1 [Example 172, Pyrimidine-2-carboxylic acid {3-[(6-methyl-pyrazine-2-carbonyl)-amino]-adamantan-1-yl}-amide]
32 | 63 to 99% | COc1cccc(C(=O)NC23CC4CC(CC(NC(=O)c5cncc(C)n5)(C4)C2)C3)c1F [Example 167, 6-Methyl-pyrazine-2-carboxylic acid [3-(2-fluoro-3-methoxy-benzoylamino)-adamantan-1-yl]-amide]
33 | 63 to 99% | COCCCNc1cccc(C(=O)NC23CC4CC(CC(NC(=O)c5cccc(C)n5)(C4)C2)C3)n1 [Example 231, 6-(3-Methoxy-propylamino)-pyridine-2-carboxylic acid {3-[(6-methyl-pyridine-2-carbonyl)-amino]-adamantan-1-yl}-amide]
34 | 63 to 99% | O=C(NC12CC3CC(C1)CC(NC(=O)c1cccc(NCCO)n1)(C3)C2)c1cccc(F)c1 [Example 212, 6-(2-Hydroxy-ethylamino)-pyridine-2-carboxylic acid [3-(3-fluoro-benzoylamino)-adamantan-1-yl]-amide]
